From patent publication US20030124655A1, “Receptor protein specifically recognizing bacterial dna” (priority 2000, published 2003)
Like-named read-outs stand apart in the source and are kept apart here.

Assays:
NF-κB = NF-κB DNA-binding activity in peritoneal macrophages (gel shift); details: 1.0 μM
Protocol: 2 ml of 4% thioglycolic acid medium (DIFCO) was injected to each peritoneum of wild-type mice and TLR9 knockout mice (TLR9^−/−), peritoneal exudation cells were isolated from peritonea from each mouse after 3 days, the cells were cultured in RPMI1640 medium to which 10% of fetal bovine serum (GIBCO) was added at 37° C. for 2 hours, and remove the unattached cells by washing with ice-chilled Hank's buffered salt solution (HBSS; GIBCO), and the attached cells were used as peritoneal macrophages in the following experiments.

spleen cells = assay: Spleen cell proliferation, [3H]-timidine uptake; type: cell-based, mouse
IRAK = IRAK activity in macrophages, in vitro kinase assay; type: cell-based, mouse
Protocol: (§1) As described in a reference (Immunity 11, 115-122, 1999), the JNK activity and IRAK activity were measured by in vitro kinase assay using GST-c-Jun fusion protein (GST-c-Jun) as a substrate (top figures of FIG. 10 and FIG. 11; GST-c-Jun, Auto).
(§2) The cell lysates were separated by SDS-polyacrylamide gel electrophoresis to transfer them onto a nitrocellulose membrane and blotted the membrane with anti-JNK antibody (Santa Cruz) or anti-IRAK antibody (Transduction Laboratories) to visualize using an enhanced chemiluminescent system (Dupont) (bottom figures of FIG. 10 and FIG. 11; WB).

[1] = test system: dendritic cells derived from bone marrow; assay: IL-12 p40 production in bone marrow-derived dendritic cells (ELISA); type: cell-based, mouse; details: dendritic cells from wild-type mice; 0.1 μM, 2 days
JNK = JNK activity in macrophages, in vitro kinase assay; type: cell-based, mouse
Protocol: as §1, §2

[2] = cited from earlier work
B cells = assay: MHC class II expression on the surface of B cells; type: cell-based, mouse; details: B cells from wild-type mice
[3] = macrophages from TLR9 knockout mice
[4] = macrophages from wild-type mice

TCC-ATG-ACG-TTC-CTG-ATG-CT (DNA TCCATGACGTTCCTGATGCT; listed as DNA, chemistry not given here) [CpG ODN, ID No: 5; from TIB MOLBIOL]
NF-κB DNA-binding activity (NF-κB; [3]): did not increase NF-κB DNA-binding activity
NF-κB DNA-binding activity (NF-κB; [4]): increased NF-κB DNA-binding activity
cell proliferating reaction ([3H]-timidine uptake) (spleen cells; spleen cells from TLR9 knockout mice, any concentration): did not show any cell proliferating reaction
cell proliferating reaction ([3H]-timidine uptake) (spleen cells; spleen cells from wild-type mice): promote cell proliferating reactions depending on the amount
IRAK activation (IRAK; [3]): does not activate
IRAK activation (IRAK; [4]): activates
IL-12 p40 production [1]: produced IL-12
JNK activation (JNK; [3]): does not activate
JNK activation (JNK; [4]): activates
response to CpG ODN ([2]; MyD88 knockout mice): do not show response
response to CpG ODN ([2]; TLR2 knockout mice): show normal response
response to CpG ODN ([2]; TLR4 knockout mice): show normal response
amount of expressing MHC class II on the surface of B cells (B cells): increased
